Assay results from ChEMBL document CHEMBL2413072, “Synthesis and in vitro anticancer studies of novel C-2 arylidene congeners of lantadenes” (2013).

What was measured:
Format in all cases: functional
KM12 [1] = assay: Growth inhibition of human KM12 cells by sulforhodamine B assay
[2] = Growth inhibition of human HCC2998 cells by sulforhodamine B assay
MOLT-4 [3] = assay: Growth inhibition of human MOLT4 cells by sulforhodamine B assay
RPMI-8226 [4] = assay: Growth inhibition of human RPMI8226 cells by sulforhodamine B assay
HL-60(TB) [5] = assay: Growth inhibition of human HL-60(TB) cells by sulforhodamine B assay
IGROV-1 = assay: Growth inhibition of human IGROV1 cells assessed as cell growth at 10^-8 M by sulforhodamine B assay; conditions: read-out: Activity
SK-MEL-28 [6] = assay: Growth inhibition of human SK-MEL-28 cells assessed as cell growth at 10^-8 M by sulforhodamine B assay; conditions: read-out: Activity
SK-MEL-2 = assay: Growth inhibition of human SK-MEL-2 cells assessed as cell growth at 10^-8 M by sulforhodamine B assay; conditions: read-out: Activity
M14 = assay: Growth inhibition of human M14 cells assessed as cell growth at 10^-8 M by sulforhodamine B assay; conditions: read-out: Activity
SF-268 [7] = assay: Growth inhibition of human SF268 cells assessed as cell growth at 10^-8 M by sulforhodamine B assay; conditions: read-out: Activity
SW-620 [8] = assay: Growth inhibition of human SW620 cells assessed as cell growth at 10^-8 M by sulforhodamine B assay; conditions: read-out: Activity
RPMI-8226 [9] = assay: Growth inhibition of human RPMI8226 cells assessed as cell growth at 10^-8 M by sulforhodamine B assay; conditions: read-out: Activity
MOLT-4 [10] = assay: Growth inhibition of human MOLT4 cells assessed as cell growth at 10^-8 M by sulforhodamine B assay; conditions: read-out: Activity
HL-60(TB) [11] = assay: Growth inhibition of human HL-60(TB) cells assessed as cell growth at 10^-8 M by sulforhodamine B assay; conditions: read-out: Activity
SK-OV-3 = assay: Growth inhibition of human SKOV3 cells by sulforhodamine B assay
OVCAR-8 = assay: Growth inhibition of human OVCAR8 cells by sulforhodamine B assay
OVCAR-5 = assay: Growth inhibition of human OVCAR5 cells by sulforhodamine B assay
SN12C [12] = assay: Growth inhibition of human SN12C cells assessed as cell growth at 10^-4 M by sulforhodamine B assay; conditions: read-out: Activity
RXF 393 = assay: Growth inhibition of human RXF393 cells assessed as cell growth at 10^-4 M by sulforhodamine B assay; conditions: read-out: Activity
SF-295 = assay: Growth inhibition of human SF295 cells assessed as cell growth at 10^-4 M by sulforhodamine B assay; conditions: read-out: Activity
SW-620 [13] = assay: Growth inhibition of human SW620 cells assessed as cell growth at 10^-4 M by sulforhodamine B assay; conditions: read-out: Activity
KM12 [14] = assay: Growth inhibition of human KM12 cells assessed as cell growth at 10^-4 M by sulforhodamine B assay; conditions: read-out: Activity
NCI-H460 [15] = assay: Growth inhibition of human NCI-H460 cells assessed as cell growth at 10^-4 M by sulforhodamine B assay; conditions: read-out: Activity
A549 = assay: Growth inhibition of human A549/ATCC cells assessed as cell growth at 10^-4 M by sulforhodamine B assay; conditions: read-out: Activity
HL-60(TB) [16] = assay: Growth inhibition of human HL-60(TB) cells assessed as cell growth at 10^-4 M by sulforhodamine B assay; conditions: read-out: Activity
SN12C [17] = assay: Growth inhibition of human SN12C cells assessed as cell growth at 10^-6 M by sulforhodamine B assay; conditions: read-out: Activity
SK-MEL-28 [18] = assay: Growth inhibition of human SK-MEL-28 cells assessed as cell growth at 10^-6 M by sulforhodamine B assay; conditions: read-out: Activity
LOX IMVI = assay: Growth inhibition of human LOXIMVI cells assessed as cell growth at 10^-6 M by sulforhodamine B assay; conditions: read-out: Activity
SF-268 [19] = assay: Growth inhibition of human SF268 cells assessed as cell growth at 10^-6 M by sulforhodamine B assay; conditions: read-out: Activity
NCI-H23 = assay: Growth inhibition of human NCI-H23 cells assessed as cell growth at 10^-6 M by sulforhodamine B assay; conditions: read-out: Activity
HOP-62 = assay: Growth inhibition of human HOP62 cells assessed as cell growth at 10^-6 M by sulforhodamine B assay; conditions: read-out: Activity
DU-145 [20] = assay: Growth inhibition of human DU145 cells assessed as cell growth at 10^-7 M by sulforhodamine B assay; conditions: read-out: Activity
[21] = Growth inhibition of human NCI-ADR-RES cells assessed as cell growth at 10^-7 M by sulforhodamine B assay; conditions: read-out: Activity
UACC-62 = assay: Growth inhibition of human UACC62 cells assessed as cell growth at 10^-7 M by sulforhodamine B assay; conditions: read-out: Activity
MDA-MB-435 = assay: Growth inhibition of human MDA-MB-435 cells assessed as cell growth at 10^-7 M by sulforhodamine B assay; conditions: read-out: Activity
NCI-H460 [22] = assay: Growth inhibition of human NCI-H460 cells assessed as cell growth at 10^-7 M by sulforhodamine B assay; conditions: read-out: Activity
RPMI-8226 [23] = assay: Growth inhibition of human RPMI8226 cells assessed as cell growth at 10^-7 M by sulforhodamine B assay; conditions: read-out: Activity
T47D = assay: Growth inhibition of human T47D cells assessed as cell growth at 10^-8 M by sulforhodamine B assay; conditions: read-out: Activity
DU-145 [24] = assay: Growth inhibition of human DU145 cells assessed as cell growth at 10^-8 M by sulforhodamine B assay; conditions: read-out: Activity
OVCAR-4 = assay: Growth inhibition of human OVCAR4 cells assessed as cell growth at 10^-8 M by sulforhodamine B assay; conditions: read-out: Activity
[25] = read-out: LC50 (the source's name)
[26] = read-out: pLC50 (the source's name) (converted)

## C/C=C(/C)C(=O)O[C@@H]1CC(C)(C)C[C@H]2C3=CC[C@@H]4[C@@]5(C)CC[C@H](O)C(C)(C)[C@@H]5CC[C@@]4(C)[C@]3(C)CC[C@@]12C(=O)O [Reduced Lantadene A]
KM12 [1]; read-out: GI50
  GI50: 1.35 µM
KM12 [1]; read-out: TGI
  TGI: 2.93 µM
KM12 [1]; read-out: pGI50 (converted)
  GI50: 1.35 µM
KM12 [1]; read-out: pTGI (converted)
  TGI: 2.95 µM
[2]; HCC 2998, read-out: GI50
  GI50: 1.88 µM
[2]; HCC 2998, read-out: LC50 (the source's name)
  CC50: 6.43 µM
[2]; HCC 2998, read-out: TGI
  TGI: 3.47 µM
[2]; HCC 2998, read-out: pGI50 (converted)
  GI50: 1.86 µM
[2]; HCC 2998, read-out: pLC50 (the source's name) (converted)
  CC50: 6.46 µM
[2]; HCC 2998, read-out: pTGI (converted)
  TGI: 3.47 µM
MOLT-4 [3]; read-out: GI50
  GI50: 2.05 µM
MOLT-4 [3]; [25]
  CC50: > 100 µM
MOLT-4 [3]; read-out: TGI
  TGI: 5.14 µM
MOLT-4 [3]; read-out: pGI50 (converted)
  GI50: 2.04 µM
MOLT-4 [3]; [26]
  CC50: > 100 µM
MOLT-4 [3]; read-out: pTGI (converted)
  TGI: 5.13 µM
RPMI-8226 [4]; read-out: GI50
  GI50: 1.85 µM
RPMI-8226 [4]; [25]
  CC50: > 100 µM
RPMI-8226 [4]; read-out: TGI
  TGI: 8.71 µM
RPMI-8226 [4]; read-out: pGI50 (converted)
  GI50: 1.86 µM
RPMI-8226 [4]; [26]
  CC50: > 100 µM
RPMI-8226 [4]; read-out: pTGI (converted)
  TGI: 8.71 µM
HL-60(TB) [5]; read-out: GI50
  GI50: 2.19 µM
HL-60(TB) [5]; [25]
  CC50: > 100 µM
HL-60(TB) [5]; read-out: TGI
  TGI: 4.9 µM
HL-60(TB) [5]; read-out: pGI50 (converted)
  GI50: 2.19 µM
HL-60(TB) [5]; [26]
  CC50: > 100 µM
HL-60(TB) [5]; read-out: pTGI (converted)
  TGI: 4.9 µM
IGROV-1
  growth at 0.01 µM: 109%
SK-MEL-28 [6]
  growth at 0.01 µM: 90%
SK-MEL-2
  growth at 0.01 µM: 107%
M14
  growth at 0.01 µM: 100%
SF-268 [7]
  growth at 0.01 µM: 101%
SW-620 [8]
  growth at 0.01 µM: 99%
RPMI-8226 [9]
  growth at 0.01 µM: 96%
MOLT-4 [10]
  growth at 0.01 µM: 103%
HL-60(TB) [11]
  growth at 0.01 µM: 106%
SK-OV-3; read-out: GI50
  GI50: 1.87 µM
SK-OV-3; read-out: pGI50 (converted)
  GI50: 1.86 µM
OVCAR-8; read-out: GI50
  GI50: 1.92 µM
OVCAR-8; read-out: TGI
  TGI: 3.87 µM
OVCAR-8; read-out: pGI50 (converted)
  GI50: 1.91 µM
OVCAR-8; read-out: pTGI (converted)
  TGI: 3.89 µM
OVCAR-5; read-out: GI50
  GI50: 3.38 µM
OVCAR-5; [25]
  CC50: 45.5 µM
OVCAR-5; read-out: TGI
  TGI: 8.9 µM
OVCAR-5; read-out: pGI50 (converted)
  GI50: 3.39 µM
OVCAR-5; [26]
  CC50: 45.7 µM
OVCAR-5; read-out: pTGI (converted)
  TGI: 8.91 µM
SN12C [12]
  growth at 100 µM: -51%
RXF 393
  growth at 100 µM: -76%
SF-295
  growth at 100 µM: -57%
SW-620 [13]
  growth at 100 µM: -32%
KM12 [14]
  growth at 100 µM: -29%
NCI-H460 [15]
  growth at 100 µM: -37%
A549
  growth at 100 µM: -59%
HL-60(TB) [16]
  growth at 100 µM: -36%
SN12C [17]
  growth at 1 µM: 83%
SK-MEL-28 [18]
  growth at 1 µM: 90%
LOX IMVI
  growth at 1 µM: 97%
SF-268 [19]
  growth at 1 µM: 104%
NCI-H23
  growth at 1 µM: 98%
HOP-62
  growth at 1 µM: 99%
DU-145 [20]
  growth at 0.1 µM: 115%
[21]
  growth at 0.1 µM: 105%
UACC-62
  growth at 0.1 µM: 88%
MDA-MB-435
  growth at 0.1 µM: 94%
NCI-H460 [22]
  growth at 0.1 µM: 99%
RPMI-8226 [23]
  growth at 0.1 µM: 92%
T47D
  growth at 0.01 µM: 101%
DU-145 [24]
  growth at 0.01 µM: 113%
OVCAR-4
  growth at 0.01 µM: 97%
